The results in this text go back to ChEMBL document CHEMBL1201862, “PubChem BioAssay data set” (2004).

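Interpolation was linear, between the two tested concentrations surrounding the appropriate level; five concentrations were tested over 48 hours in 96-well plates. At the GI50, growth is halved.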 Activity calls are given as the source filed them. Cut-off read from the data, not from the text of the source: active = GI50 up to about 1.1 µM and inactive = higher.

Some test systems named below: EKVX; LOX IMVI; M14; SF-295; 786-0; OVCAR-4; NCI-H522; SW-620; HOP-62; KM12; SK-MEL-2; MDA-MB-231; SR; SNB-19; RXF 393; T47D; HOP-92; A498; HCC 2998; U-251.
Assay in all cases: NCI anticancer screen, dose series, 48 h

Regarding `C=C[C@@]1(C)CC(=O)[C@]2(O)[C@@]3(C)[C@@H](O)CCC(C)(C)[C@@H]3[C@H](O)[C@@H](OC(C)=O)[C@@]2(C)O1`, the GI50 with EKVX, in the assay on LOX IMVI, in the assay on M14, in the assay with SF-295, in the assay with 786-0 and in the assay with OVCAR-4 was > 100 µM (inactive) in each case. The GI50 in the assay with NCI-H522 is > 100 µM (inactive); with SW-620, > 100 µM (inactive); with HOP-62 it was > 100 µM (inactive); with KM12 it was 1.7 µM (inactive); in the assay on SK-MEL-2 it was > 100 µM (inactive); in the assay with MDA-MB-231, 6.18 µM (inactive). Further, the GI50 with SR is > 100 µM (inactive); in the assay with SNB-19, > 100 µM (inactive); in the assay on RXF 393 it was 11.2 µM (inactive); with T47D, 54.5 µM (inactive); in the assay on HOP-92 it was > 100 µM (inactive); in the assay on A498, > 100 µM (inactive). The GI50 with HCC 2998 and with U-251 was > 100 µM (inactive) each time.
`O=C(O)c1c2c(c(O)c3c1CN(C1CCCCC1)CO3)OCN(C1CCCCC1)C2`: the GI50 is 47.1 µM (inactive) in the assay on EKVX; 21.3 µM (inactive) in the assay on LOX IMVI; > 100 µM (inactive) with M14; 92.7 µM (inactive) in the assay on SF-295; 68.4 µM (inactive) in the assay on 786-0; > 100 µM (inactive) in the assay on OVCAR-4. In addition, the GI50 in the assay on NCI-H522 was 29.1 µM (inactive); in the assay on SW-620, 22 µM (inactive); in the assay on HOP-62, 83.2 µM (inactive); in the assay on KM12, > 100 µM (inactive); with SK-MEL-2, > 100 µM (inactive); in the assay with MDA-MB-231 it was 46.7 µM (inactive). For the same compound, the GI50 in the assay on SR was 27.2 µM (inactive); in the assay on SNB-19 it was > 100 µM (inactive); in the assay on RXF 393, 63.4 µM (inactive); in the assay with T47D, > 100 µM (inactive); in the assay on HOP-92, > 100 µM (inactive); in the assay with A498, > 100 µM (inactive). Moreover, the values for the GI50 with HCC 2998 and in the assay on U-251 were 21.6 µM (inactive) and 42.6 µM (inactive), respectively.
In the case of `O=c1nc(N2CCNCC2)oc2cc(Cl)oc(=O)c12`, the GI50 in the assay with EKVX was 6.28 µM (inactive); in the assay on LOX IMVI, 2.06 µM (inactive); in the assay on M14, 2.45 µM (inactive); in the assay with SF-295, 7.13 µM (inactive); in the assay with 786-0, 3.34 µM (inactive); in the assay on OVCAR-4 it was 5.45 µM (inactive). The GI50 in the assay with NCI-H522 is 1.7 µM (inactive); in the assay on SW-620 it was 2.26 µM (inactive); in the assay on HOP-62 it was 4.69 µM (inactive); in the assay on KM12, 5.96 µM (inactive); with SK-MEL-2, 8.49 µM (inactive); in the assay on MDA-MB-231, 12.1 µM (inactive). Further, the GI50 is 1.65 µM (inactive) with SR; 15.4 µM (inactive) with SNB-19; 9.1 µM (inactive) in the assay on RXF 393; 2.79 µM (inactive) in the assay on T47D; 3.94 µM (inactive) in the assay on HOP-92; 20.8 µM (inactive) in the assay with A498. In addition, the GI50 is 11.1 µM (inactive) in the assay on HCC 2998 and 3.91 µM (inactive) in the assay on U-251.
Consider `CC(=O)Nc1ccc2c3c(cc(O)c2c1)N(C(=O)CCCCC(=O)N1CC(CCl)c2c1cc(O)c1cc(NC(C)=O)ccc21)CC3CCl` (stereo not given), for which the GI50 in the assay with EKVX was 2.38 µM (inactive); with LOX IMVI, 0.0313 µM (active); with M14 it was 0.083 µM (active); in the assay on SF-295, 0.151 µM (active); with 786-0, 0.0528 µM (active); with OVCAR-4 it was 1.63 µM (inactive). In addition, the GI50 in the assay on NCI-H522 was 0.0575 µM (active); with SW-620, 0.518 µM (active); in the assay with HOP-62, 0.177 µM (active); in the assay with KM12 it was 0.505 µM (active); with SK-MEL-2, 0.144 µM (active); in the assay on MDA-MB-231, 0.29 µM (active). Also, the GI50 was < 0.01 µM (active) with SR; 0.0436 µM (active) in the assay with SNB-19; 0.153 µM (active) with RXF 393; 0.0129 µM (active) in the assay with T47D; 0.207 µM (active) with HOP-92; 0.127 µM (active) with A498. The GI50 is 0.21 µM (active) in the assay on HCC 2998 and 0.0285 µM (active) with U-251.
As to `Cc1cc2cc3c(cc2c(-c2ccc([N+](=O)[O-])cc2)n1)OCO3`, the GI50 in the assay with EKVX is 62.2 µM (inactive); with LOX IMVI, 41.2 µM (inactive); with M14, 88.7 µM (inactive); in the assay on SF-295 it was 50 µM (inactive); in the assay with 786-0 it was 23.6 µM (inactive); in the assay with OVCAR-4, 17.9 µM (inactive). Also, the GI50 in the assay with NCI-H522 was 14.4 µM (inactive); with SW-620 it was 29.4 µM (inactive); in the assay with HOP-62, 19 µM (inactive); with KM12 it was 25.1 µM (inactive); in the assay on SK-MEL-2 it was 39.1 µM (inactive); in the assay with MDA-MB-231, 18.6 µM (inactive). Besides, the GI50 was 27.9 µM (inactive) with SR; 21.2 µM (inactive) in the assay on SNB-19; 32.7 µM (inactive) in the assay on RXF 393; 34.9 µM (inactive) in the assay on T47D; 3.77 µM (inactive) in the assay with HOP-92; > 100 µM (inactive) in the assay on A498. Further, the GI50 with HCC 2998 was 74 µM (inactive); in the assay with U-251, 23.7 µM (inactive).
As to `Cc1cc(C)c(C[C@H]2COC(=O)[C@]2(O)Cc2c(C)cc(C)cc2C)c(C)c1`, the GI50 is 12.6 µM (inactive) in the assay on EKVX; 17.8 µM (inactive) with LOX IMVI; 18.3 µM (inactive) in the assay with M14; 16.9 µM (inactive) with SF-295; 20.8 µM (inactive) with 786-0; 12.9 µM (inactive) in the assay with OVCAR-4. For the same compound, the GI50 is 18.7 µM (inactive) in the assay with NCI-H522; 20.9 µM (inactive) in the assay on SW-620; 19.2 µM (inactive) in the assay on HOP-62; 18.3 µM (inactive) in the assay with KM12; 23.1 µM (inactive) in the assay with SK-MEL-2; 16.7 µM (inactive) with MDA-MB-231. Besides, the GI50 in the assay on SR is 41.5 µM (inactive); in the assay with SNB-19, 21.6 µM (inactive); with RXF 393, 11.2 µM (inactive); in the assay on T47D, 4.67 µM (inactive); in the assay on HOP-92 it was 14.2 µM (inactive); with A498, 14.6 µM (inactive). In addition, the GI50 in the assay on HCC 2998 is 13.7 µM (inactive); with U-251 it was 18.9 µM (inactive).
Regarding `O=C1CSC(c2cccs2)N1c1nc2cc3sc(N4C(=O)CSC4c4cccs4)nc3cc2s1` (stereo not given), the GI50 in the assay on EKVX is 16 µM (inactive); in the assay on LOX IMVI, 29.5 µM (inactive); in the assay with M14, > 50 µM (inactive); with SF-295, > 50 µM (inactive); in the assay on 786-0, > 50 µM (inactive); with OVCAR-4, > 50 µM (inactive). For the same compound, the GI50 with NCI-H522 was 13.2 µM (inactive); with SW-620 it was 16.2 µM (inactive); with HOP-62 it was > 50 µM (inactive); in the assay on KM12 it was > 50 µM (inactive); in the assay on SK-MEL-2, > 50 µM (inactive); in the assay on MDA-MB-231, > 50 µM (inactive). For the same compound, the GI50 in the assay on SR is 5.45 µM (inactive); in the assay with SNB-19, > 50 µM (inactive); in the assay with RXF 393 it was > 50 µM (inactive); in the assay with T47D, > 50 µM (inactive); in the assay with HOP-92 it was > 50 µM (inactive); with A498, > 50 µM (inactive). Moreover, the GI50 in the assay with HCC 2998 was > 50 µM (inactive); in the assay with U-251, 40.9 µM (inactive).
As for `Cc1n(-c2ccccc2)c2c([n+]1Cc1ccc([N+](=O)[O-])cc1)C(=O)c1ccccc1C2=O`, the GI50 was 2.49 µM (inactive) in the assay on EKVX; 1.75 µM (inactive) in the assay on LOX IMVI; 2.59 µM (inactive) in the assay on M14; 5.45 µM (inactive) in the assay with SF-295; 4.31 µM (inactive) in the assay on 786-0; 1.66 µM (inactive) in the assay on OVCAR-4. In addition, the GI50 in the assay with NCI-H522 was 0.579 µM (active); in the assay on SW-620, 2.12 µM (inactive); in the assay with HOP-62, 6.5 µM (inactive); in the assay with KM12, 2.29 µM (inactive); in the assay on SK-MEL-2, 1.48 µM (inactive); in the assay with MDA-MB-231 it was 1.59 µM (inactive). For the same compound, the GI50 in the assay with SR was 1.72 µM (inactive); with SNB-19, 1.72 µM (inactive); in the assay on RXF 393 it was 7.66 µM (inactive); with T47D it was 1.64 µM (inactive); in the assay with HOP-92, 2.3 µM (inactive); in the assay on A498, 12.2 µM (inactive). For the same compound, the GI50 with HCC 2998 was 2.26 µM (inactive); with U-251, 1.75 µM (inactive).
For the compound `CCOc1ccc(/C=C2\N=C(c3ccc([N+](=O)[O-])cc3)OC2=O)cc1`, the GI50 with EKVX, with LOX IMVI, in the assay on M14, with SF-295, in the assay on 786-0 and in the assay with OVCAR-4 was > 100 µM (inactive) each time. Also, the GI50 in the assay with NCI-H522, with SW-620, in the assay with HOP-62, in the assay with KM12, with SK-MEL-2 and in the assay with MDA-MB-231 was > 100 µM (inactive) in each case. Moreover, the GI50 with SR, in the assay with SNB-19, in the assay on RXF 393, with T47D, with HOP-92 and with A498 was > 100 µM (inactive) throughout. The GI50 with HCC 2998 and with U-251 was > 100 µM (inactive) each time.
